This note sets out measurements from patent publication US12630517B2, “Process for preparing large size isoxazoline particles” (Intervet Inc., priority 2017, dated 2026).

Common to all, as to assay type: physicochemical
Data set [1] in a line: Pressure titration for mechanical resiliency (Sympatec HELOS), 1 to 3 bar dispersion pressure. Particulars: for reduction in x50/d50 from the pressure titration from 1 bar to 3 bar: dried particles of the example (FIG. 10, FIG. 15). The source says: Mechanical resiliency is the resistance of crystals or particles to break into smaller crystals or particles when exposed to pressure or stress from other sources. Mechanical resiliency can be measured by a pressure titration using the Sympatec HELOS. This instrument can simultaneously measure the particle size distribution. In this experiment, pressure is applied to the crystals to disperse or separate them one from another. The change in the particle size distribution measurement of d50 is monitored as the pressure on the crystals is increased from 1 bar to 3 bars. Preferably, the isoxazoline compound particles of the subject invention will not decrease their particle size distribution measurement of d50 by more than 30-40% when the dispersion pressure is increased from 1 to 3 bar.
(§1) The volume weighted particle size of the fluralaner crystals was measured by laser diffraction (Sympatec Helos) to determine the particle size distribution. The mechanical resiliency was also determined during a pressure titration experiment. […] In this case, this material is the product of the previous commercial process using an unseeded, distillative crystallization process from an ethyl acetate, toluene solvent system. Of note is the lower particle size and general wider distribution of sizes of the particles.
In this experiment, the particle size distribution was monitored as the particles are exposed to increasing pressure from 1 bar to 3 bar. […] Moreover, the particle size distribution curve broadens and shifts towards smaller particle sizes. This is evidence that these particles are being broken under the increased pressure and is an indication that the particles were very thin.

Data set [2] in a line: Volume weighted particle size distribution by laser diffraction (Sympatec Helos). Particulars: for x50/d50 particle size dimension at end of recycle loop: in-process slurry at 54° C., after the recycle loop, before final cooling.
Text: As used herein, particle size data reported are volume weighted as measured by conventional particle techniques well known to those skilled in the art, such as static light scattering (also known as laser diffraction), image analysis or sieving. More discussion of particle size measurement is provided below.
The volume weighted particle size can be measured by sieving, microscopy or laser diffraction (Malvern or Sympatec) The volume weighted particle size measurement can be performed with a Malvern Mastersizer 2000 with the Hydro 2000G measuring cell, or with a Horiba LA-910 laser scattering particle size distribution analyzer. The volume weighted particle size can be measured by a Sympatec Helos instrument.
as §1

A short description of data set [3]: Particle size by wet method, Microtrac static light scattering. Particulars: FIG. 13. The protocol: FIG. 13—Particle size distribution of the material made from Example 4. […] The particle size measurement for this sample was conducted with a wet method using a Microtrac static light scattering system.
The nature of data set [4]: Scanning electron microscopy of particles. The source says: Scanning electron microscopy (SEM) is an analytical instrument that uses a focused beam of high-energy electrons to generate a variety of signals at the surface of solid specimens. The signals reveal information about the sample including external morphology (texture), chemical composition, and crystalline structure and orientation of materials making up the sample. FIG. 8 is a scanning electron microscopy image of fluralaner particles that were not produced the inventive process. Of note is that these crystals are rather thin. FIG. 9 is a scanning electron microscopy image of fluralaner particles that were produce by the inventive process. In contrast to the particles shown in FIG. 8, these particles are large (around 100 μm) and thick (around 10-20 μm).

[5] abbreviates: FIG. 9, particles produced by the inventive process.

Consider `Cc1cc(C2=NOC(c3cc(Cl)cc(Cl)c3)(C(F)(F)F)C2)ccc1C(=O)NCC(=O)NCC(F)(F)F` (stereo not drawn) [Example 5], for which the “reduction in x50/d50 from the pressure titration from 1 bar to 3 bar” value in data set [1] is recorded as “approximately 20%”. The “average d50 of resulting material” value in data set [2] (FIG. 15, crystallised from 5:3 toluene:ethyl acetate) is 99 μm. In addition, the “x50/d50 particle size dimension at end of recycle loop” value (shortened to “x50/d50 particle size dimension”) in data set [2] is “approximately 50 μm”.
Consider `Cc1cc(C2=NOC(c3cc(Cl)cc(Cl)c3)(C(F)(F)F)C2)ccc1C(=O)NCC(=O)NCC(F)(F)F` (stereo not drawn) [Example 1], for which, in data set [2], the “x50/d50 particle size dimension” value is “approximately 40 μm”.
Turning to `Cc1cc(C2=NOC(c3cc(Cl)cc(Cl)c3)(C(F)(F)F)C2)ccc1C(=O)NCC(=O)NCC(F)(F)F` (stereo not drawn) [Example 4], in data set [3], the d10 is 47.3 μm, the d50 is given as 103 μm and the d90 was 158.8 μm. The “x50/d50 particle size dimension” value in data set [2] was “approximately 40 μm”.
On to `Cc1cc(C2=NOC(c3cc(Cl)cc(Cl)c3)(C(F)(F)F)C2)ccc1C(=O)NCC(=O)NCC(F)(F)F` (stereo not drawn) [Example 3], for which the “reduction in x50/d50 from the pressure titration from 1 bar to 3 bar” value in data set [1] is recorded as “approximately 24%”. For the same compound, the “x50 of resulting material” value in data set [2] (FIG. 10, dried particles) is 108. Also, the “x50/d50 particle size dimension” value in data set [2] is “approximately 45 μm”.
With `Cc1cc(C2=NOC(c3cc(Cl)cc(Cl)c3)(C(F)(F)F)C2)ccc1C(=O)NCC(=O)NCC(F)(F)F` (stereo not drawn) [fluralaner, 4-[5-(3,5-Dichlorophenyl)-5-trifluoromethyl-4,5-dihydroisoxazol-3-yl]-2-methyl-N-[(2,2,2-trifluoro-ethylcarbamoyl)-methyl]-benzamide], the “particle size (x50) at 2 bar dispersing pressure” value in data set [1] (FIG. 5, crystals not produced by the inventive process, 2 bar) stood at 80 μm. The “particle size (d50) at 1 bar” value in data set [1] (FIG. 6, crystals produced by the inventive process, 1 bar) is on record as 100 μm. Further, in data set [1] (FIG. 6, crystals produced by the inventive process, 3 bar), the “particle size (d50) at 3 bar” value amounted to 73 μm. The “loss of d50 in pressure titration” value in data set [1] (FIG. 7, additional batch produced by the inventive process) is given as “around 35%”. Also, the “d50 after pressure titration” value in data set [1] (FIG. 7, additional batch produced by the inventive process, after pressure increase) is reported as “around 67 μm”. In addition, in data set [1] (FIG. 7, additional batch produced by the inventive process, before pressure increase), the “original d50” value was “around 103 μm”. Moreover, the “d50 reduction in pressure titration test” value in data set [1] (FIG. 10, crystals produced by the inventive process, % of the original value) is listed as “around 25%”. Further, the “particle thickness by SEM” value in data set [4] (FIG. 8, particles not produced by the inventive process) is “rather thin”. In data set [4] (setting [5]), the “particle size by SEM” value was “around 100 μm” and the “particle thickness by SEM” value is 10-20 μm.
